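Each compound was tested at five concentrations against cells in 96-well plates for 48 hours. GI50 marks 50% less growth. TGI marks complete inhibition of growth.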
Assays:
Assay in all cases: DTP human tumour cell line panel, 48 h
[1] = system: A549 NSCLC
[2] = system: SF-295 CNS
[3] = system: NCI-H522 lung
[4] = system: OVCAR-4 ovarian
[5] = system: SR leukemia
[6] = system: IGROV1 ovarian
[7] = system: UACC-257 melanoma
[8] = system: LOX IMVI melanoma

Compound	TGI [1] [µM]	TGI [2] [µM]	TGI [3] [µM]	TGI [4] [µM]	TGI [5] [µM]	TGI [6] [µM]	TGI [7] [µM]	TGI [8] [µM]	GI50 [1] [µM]	GI50 [2] [µM]	GI50 [3] [µM]	GI50 [4] [µM]	GI50 [6] [µM]	GI50 [7] [µM]	GI50 [8] [µM]	GI50 [5] [µM]
CCCCCCCC[N+](C)(C)Cc1ccc(C[N+](C)(C)CCCCCCCC)cc1	> 100	> 100	> 100	> 100	> 100	65.1	> 100	> 100	–	–	–	–	–	–	–	–
C=C(C)C1CC=C(C(=O)O)CC1 (stereo not given)	3470	> 5000	1830	> 5000	4650	1480	3450	3440	–	–	–	–	–	–	–	–
CC(=O)[CH-]C(=O)c1ccccc1.CC(=O)[CH-]C(=O)c1ccccc1.O=C([O-])C[O-].O=C([O-])C[O-].[Ti+4]	> 100	> 100	70.5	> 100	–	> 100	> 100	> 100	18.2	50.7	17.5	41	> 100	43.1	41.2	–
O=C(O)/C(Cl)=C(\Cl)Nc1cccc(C(F)(F)F)c1	> 100	> 100	–	> 100	–	> 100	–	> 100	–	–	–	–	–	–	–	–
CC1(C)CCC(=O)c2c(O)ccc(O)c21	> 100	> 100	> 100	> 100	–	> 100	81.9	–	–	–	–	–	–	–	–	–
OCCN1CCN(CCO)Cc2ccccc2OCCOc2ccccc2C1	> 100	–	> 100	> 100	> 100	> 100	> 100	> 100	–	–	–	–	–	–	–	–
CCOC(=O)/C(=C/c1ccc(OC)c(OC)c1)C(=O)c1ccccc1	90.2	46.9	29.1	60.3	–	51.4	33.2	–	–	–	–	–	–	–	–	–
Cc1ccc(-c2csc(N(C(=O)N3CCN(c4cc5c(cc4F)c(=O)c(C(=O)O)cn5C4CC4)CC3)c3ccccc3)n2)cc1	> 100	1.86	> 100	–	> 100	> 100	> 100	> 100	0.372	0.303	0.292	–	0.338	0.372	0.305	0.238
COc1ccc2[nH]c3c4c(c5cc(C(C)(C)C)ccc5c3c2c1)C(=O)N(c1ccccc1)C4=O	> 100	> 100	> 100	> 100	–	> 100	> 100	> 100	–	–	–	–	–	–	–	–

— PubChem BioAssay (NCI)
